Measured values: US8758816B2, “Compositions comprising azelastine and methods of use thereof” (priority 2004, dated 2014)
Where a name gives a salt, the structure may show the parent alone.

Tested on: patients with seasonal allergic rhinitis (SAR)
Test: MP 428 study: individual symptom severity scores (runny nose, itchy nose, sneezing, congestion; 0-3 scale)
Type: in vivo, human
Details: Intent-to-Treat Population
Protocol: A two-week, randomized, double-blind study, which evaluated the effects of the co-administration of ASTELIN® (azelastine hydrochloride (HCl)) and FLONASE® (fluticasone propionate) compared to either product alone in patients with seasonal allergic rhinitis (SAR) was conducted during the 2006 Texas mountain cedar season. After a 5-day placebo lead-in period, 151 patients with moderate-to-severe allergic rhinitis symptoms were randomized to either: (1) (49 total patients) ASTELIN® (azelastine hydrochloride (HCl)) plus placebo saline nasal spray 2 sprays per nostril, 15 minutes apart, twice daily (AM & PM); (2) (50 total patients) FLONASE® (fluticasone propionate) plus placebo saline nasal spray, 2 sprays per nostril, 15 minutes apart, once daily (AM) and two sessions of placebo saline nasal spray, 2 sprays per nostril, 15 minutes apart (PM); or (3) (52 total patients) the co-administration of ASTELIN® (azelastine hydrochloride (HCl)) 2 sprays per nostril plus FLONASE® (fluticasone propionate) 2 sprays per nostril (AM), 15 minutes apart, and ASTELIN® (azelastine hydrochloride (HCl)) 2 sprays per nostril plus placebo saline nasal spray, 15 minutes apart, (PM) for a 2-week double-blind treatment period.
The primary efficacy variable was the change from baseline in the Total Nasal Symptom Score (TNSS), which comprised sneezing, itchy nose, runny nose, and nasal congestion (individual symptoms scores were assigned a value between 0 and 3, where 0=no symptoms and 3=severe symptoms). This study was not statistically designed to assess the differences between ASTELIN® and FLONASE®.
The results of the clinical trial are summarized and presented in Appendix A hereinbelow and in FIGS. 1-6. […] FIGS. 2-5 show the mean improvement in severity score (0-3 scale) from baseline for the symptoms of runny nose, itchy nose, sneezing and congestion, respectively.

CN1CCCC(n2nc(Cc3ccc(Cl)cc3)c3ccccc3c2=O)CC1 (racemic) [Azelastine, (±)-1-(2H)-phthalazinone, 4-[(4-chlorophenyl)methyl]-2-(hexahydro-1-methyl-1H-azepin-4-yl)-, mono-hydrochloride]
Percent Change from Baseline in AM and PM Combined Nasal Symptom Score: Congestion, LS Mean (Day 12): −21.71% | Percent Change from Baseline in AM and PM Combined Nasal Symptom Score: Congestion, Mean (Day 12): −22.63% | Percent Change from Baseline in AM and PM Combined Nasal Symptom Score: Congestion, Median (Day 12): −16.67% | Percent Change from Baseline in AM and PM Combined Nasal Symptom Score: Itchy Nose, LS Mean (Day 12): −29.11% | Percent Change from Baseline in AM and PM Combined Nasal Symptom Score: Itchy Nose, Mean (Day 12): −28.74% | Percent Change from Baseline in AM and PM Combined Nasal Symptom Score: Itchy Nose, Median (Day 12): −16.67% | Percent Change from Baseline in AM and PM Combined Nasal Symptom Score: Runny Nose, LS Mean (Day 12): −22.75% | Percent Change from Baseline in AM and PM Combined Nasal Symptom Score: Runny Nose, Mean (Day 12): −23.43% | Percent Change from Baseline in AM and PM Combined Nasal Symptom Score: Runny Nose, Median (Day 12): −8.40% | Percent Change from Baseline in AM and PM Combined Nasal Symptom Score: Sneezing, LS Mean (Day 12): −34.92% | Percent Change from Baseline in AM and PM Combined Nasal Symptom Score: Sneezing, Mean (Day 12): −34.06% | Percent Change from Baseline in AM and PM Combined Nasal Symptom Score: Sneezing, Median (Day 12): −33.33% | Change from Baseline in AM and PM Combined Nasal Symptom Score: Congestion, LS Mean (Day 13): −1.25 | Change from Baseline in AM and PM Combined Nasal Symptom Score: Congestion, Mean (Day 13): −1.29 | Change from Baseline in AM and PM Combined Nasal Symptom Score: Congestion, Median (Day 13): −1.00 | Change from Baseline in AM and PM Combined Nasal Symptom Score: Itchy Nose, LS Mean (Day 13): −1.44 | Change from Baseline in AM and PM Combined Nasal Symptom Score: Itchy Nose, Mean (Day 13): −1.43 | Change from Baseline in AM and PM Combined Nasal Symptom Score: Itchy Nose, Median (Day 13): −1.15 | Change from Baseline in AM and PM Combined Nasal Symptom Score: Runny Nose, LS Mean (Day 13): −1.36 | Change from Baseline in AM and PM Combined Nasal Symptom Score: Runny Nose, Mean (Day 13): −1.38 | Change from Baseline in AM and PM Combined Nasal Symptom Score: Runny Nose, Median (Day 13): −1.07 | Change from Baseline in AM and PM Combined Nasal Symptom Score: Sneezing, LS Mean (Day 13): −1.60 | Change from Baseline in AM and PM Combined Nasal Symptom Score: Sneezing, Mean (Day 13): −1.60 | Change from Baseline in AM and PM Combined Nasal Symptom Score: Sneezing, Median (Day 13): −1.75 | Percent Change from Baseline in AM and PM Combined Nasal Symptom Score: Congestion, LS Mean (Day 13): −22.44% | Percent Change from Baseline in AM and PM Combined Nasal Symptom Score: Congestion, Mean (Day 13): −23.01% | Percent Change from Baseline in AM and PM Combined Nasal Symptom Score: Congestion, Median (Day 13): −18.64% | Percent Change from Baseline in AM and PM Combined Nasal Symptom Score: Itchy Nose, LS Mean (Day 13): −32.25% | Percent Change from Baseline in AM and PM Combined Nasal Symptom Score: Itchy Nose, Mean (Day 13): −31.63% | Percent Change from Baseline in AM and PM Combined Nasal Symptom Score: Itchy Nose, Median (Day 13): −22.33% | Percent Change from Baseline in AM and PM Combined Nasal Symptom Score: Runny Nose, LS Mean (Day 13): −27.36% | Percent Change from Baseline in AM and PM Combined Nasal Symptom Score: Runny Nose, Mean (Day 13): −27.57% | Percent Change from Baseline in AM and PM Combined Nasal Symptom Score: Runny Nose, Median (Day 13): −24.05% | Percent Change from Baseline in AM and PM Combined Nasal Symptom Score: Sneezing, LS Mean (Day 13): −35.90% | Percent Change from Baseline in AM and PM Combined Nasal Symptom Score: Sneezing, Mean (Day 13): −35.28% | Percent Change from Baseline in AM and PM Combined Nasal Symptom Score: Sneezing, Median (Day 13): −30.43% | Change from Baseline in AM and PM Combined Nasal Symptom Score: Congestion, LS Mean (Day 14): −1.33 | Change from Baseline in AM and PM Combined Nasal Symptom Score: Congestion, Mean (Day 14): −1.39 | Change from Baseline in AM and PM Combined Nasal Symptom Score: Congestion, Median (Day 14): −1.05 | Change from Baseline in AM and PM Combined Nasal Symptom Score: Itchy Nose, LS Mean (Day 14): −1.39 | Change from Baseline in AM and PM Combined Nasal Symptom Score: Itchy Nose, Mean (Day 14): −1.39 | Change from Baseline in AM and PM Combined Nasal Symptom Score: Itchy Nose, Median (Day 14): −1.15 | Change from Baseline in AM and PM Combined Nasal Symptom Score: Runny Nose, LS Mean (Day 14): −1.32 | Change from Baseline in AM and PM Combined Nasal Symptom Score: Runny Nose, Mean (Day 14): −1.34 | Change from Baseline in AM and PM Combined Nasal Symptom Score: Runny Nose, Median (Day 14): −1.43 | Change from Baseline in AM and PM Combined Nasal Symptom Score: Sneezing, LS Mean (Day 14): −1.51 | Change from Baseline in AM and PM Combined Nasal Symptom Score: Sneezing, Mean (Day 14): −1.50 | Change from Baseline in AM and PM Combined Nasal Symptom Score: Sneezing, Median (Day 14): −1.35 | Percent Change from Baseline in AM and PM Combined Nasal Symptom Score: Congestion, LS Mean (Day 14): −23.87% | Percent Change from Baseline in AM and PM Combined Nasal Symptom Score: Congestion, Mean (Day 14): −24.78% | Percent Change from Baseline in AM and PM Combined Nasal Symptom Score: Congestion, Median (Day 14): −20.79% | Percent Change from Baseline in AM and PM Combined Nasal Symptom Score: Itchy Nose, LS Mean (Day 14): −31.60% | Percent Change from Baseline in AM and PM Combined Nasal Symptom Score: Itchy Nose, Mean (Day 14): −31.14% | Percent Change from Baseline in AM and PM Combined Nasal Symptom Score: Itchy Nose, Median (Day 14): −25.00% | Percent Change from Baseline in AM and PM Combined Nasal Symptom Score: Runny Nose, LS Mean (Day 14): −25.17% | Percent Change from Baseline in AM and PM Combined Nasal Symptom Score: Runny Nose, Mean (Day 14): −25.22% | Percent Change from Baseline in AM and PM Combined Nasal Symptom Score: Runny Nose, Median (Day 14): −29.41% | Percent Change from Baseline in AM and PM Combined Nasal Symptom Score: Sneezing, LS Mean (Day 14): −30.86% | Percent Change from Baseline in AM and PM Combined Nasal Symptom Score: Sneezing, Mean (Day 14): −29.95% | Percent Change from Baseline in AM and PM Combined Nasal Symptom Score: Sneezing, Median (Day 14): −27.93% | Change from Baseline in AM and PM Combined Nasal Symptom Score: Congestion, LS Mean (Overall (Day 2 to Day 14)): −1.08 | Change from Baseline in AM and PM Combined Nasal Symptom Score: Congestion, Mean (Overall (Day 2 to Day 14)): −1.12 | Change from Baseline in AM and PM Combined Nasal Symptom Score: Congestion, Median (Overall (Day 2 to Day 14)): −0.77 | Change from Baseline in AM and PM Combined Nasal Symptom Score: Itchy Nose, LS Mean (Overall (Day 2 to Day 14)): −1.14 | Change from Baseline in AM and PM Combined Nasal Symptom Score: Itchy Nose, Mean (Overall (Day 2 to Day 14)): −1.16 | Change from Baseline in AM and PM Combined Nasal Symptom Score: Itchy Nose, Median (Overall (Day 2 to Day 14)): −0.98 | Change from Baseline in AM and PM Combined Nasal Symptom Score: Runny Nose, LS Mean (Overall (Day 2 to Day 14)): −1.06 | Change from Baseline in AM and PM Combined Nasal Symptom Score: Runny Nose, Mean (Overall (Day 2 to Day 14)): −1.08 | Change from Baseline in AM and PM Combined Nasal Symptom Score: Runny Nose, Median (Overall (Day 2 to Day 14)): −0.67 | Change from Baseline in AM and PM Combined Nasal Symptom Score: Sneezing, LS Mean (Overall (Day 2 to Day 14)): −1.48 | Change from Baseline in AM and PM Combined Nasal Symptom Score: Sneezing, Mean (Overall (Day 2 to Day 14)): −1.49 | Change from Baseline in AM and PM Combined Nasal Symptom Score: Sneezing, Median (Overall (Day 2 to Day 14)): −1.31 | Percent Change from Baseline in AM and PM Combined Nasal Symptom Score: Congestion, LS Mean (Overall (Day 2 to Day 14)): −19.23% | Percent Change from Baseline in AM and PM Combined Nasal Symptom Score: Congestion, Mean (Overall (Day 2 to Day 14)): −19.82% | Percent Change from Baseline in AM and PM Combined Nasal Symptom Score: Congestion, Median (Overall (Day 2 to Day 14)): −12.82% | Percent Change from Baseline in AM and PM Combined Nasal Symptom Score: Itchy Nose, LS Mean (Overall (Day 2 to Day 14)): −25.36% | Percent Change from Baseline in AM and PM Combined Nasal Symptom Score: Itchy Nose, Mean (Overall (Day 2 to Day 14)): −25.53% | Percent Change from Baseline in AM and PM Combined Nasal Symptom Score: Itchy Nose, Median (Overall (Day 2 to Day 14)): −19.66% | Percent Change from Baseline in AM and PM Combined Nasal Symptom Score: Runny Nose, LS Mean (Overall (Day 2 to Day 14)): −20.47% | Percent Change from Baseline in AM and PM Combined Nasal Symptom Score: Runny Nose, Mean (Overall (Day 2 to Day 14)): −21.06% | Percent Change from Baseline in AM and PM Combined Nasal Symptom Score: Runny Nose, Median (Overall (Day 2 to Day 14)): −15.44% | Percent Change from Baseline in AM and PM Combined Nasal Symptom Score: Sneezing, LS Mean (Overall (Day 2 to Day 14)): −34.20% | Percent Change from Baseline in AM and PM Combined Nasal Symptom Score: Sneezing, Mean (Overall (Day 2 to Day 14)): −33.98% | Percent Change from Baseline in AM and PM Combined Nasal Symptom Score: Sneezing, Median (Overall (Day 2 to Day 14)): −33.20%
